6 molecules from PubChem BioAssay (NCI) can be followed below.

Common to all, as to assay: DTP human tumour cell line panel, 48 h
For assay [1], the system named is SF-268 CNS.
For assay [2], the system named is UACC-62 melanoma.
Assay [3] concerns UACC-257 melanoma.
In assay [4] the test system is NCI-H226 lung.
For assay [5], the system named is EKVX NSCLC.
Assay [6] concerns SK-MEL-5 melanoma.
Assay [7] concerns HCC-2998 colon.
In assay [8] the test system is U251 CNS.
The test system of assay [9] is SF-295 CNS.
Assay [10] concerns MOLT-4 leukemia.

Where “and” joins values, the source holds several entries; their conditions need not be identical. Identical values can stand only once.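 The compound was tested at five concentrations on cells cultured in 96-well plates, with a 48-hour exposure period. GI50 marks 50% less growth. TGI marks complete inhibition of growth.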

One may read the GI50 as the concentration giving 50% growth inhibition. Usually TGI stands for the concentration giving total growth inhibition. Consider `CCCCCCCC(=O)O[C@H]1[C@H]2[C@@H](CC1(C)C)C(=O)[C@]13O[C@H]1C(=O)[C@]1(CO1)[C@]23C`, for which the GI50 in assay [1] is 8.17 µM; in [2], 6.47 µM; in [3], 5.03 µM; in assay [4], 20.2 µM; in [5], 36.9 µM; in assay [6], 15.3 µM. Further, the GI50 in [7] was 9.4 µM; in assay [8], 5.8 µM; in [9], 20.2 µM; in assay [10], 1.17 µM. Moreover, the TGI in assay [1] was 23.1 µM and 16.2 µM; in assay [2] it was 20.8 µM and 7.29 µM; in assay [3] it was 10.8 µM and 7.04 µM; in [4] it was 26.8 µM and 48.9 µM; in [5] it was 62.1 µM and 10 µM; in assay [6] it was 29.9 µM and 10.5 µM. The TGI in [7] was 21.3 µM and 13.2 µM; in assay [8], 11.9 µM and 22.8 µM; in [9], 43.7 µM and 36.5 µM; in [10], 10.9 µM and 2.68 µM.
Turning to `CCN(CC)c1ccc(/C=C2/NC(=O)NC2=O)cc1`, the GI50 was 4.39 µM in [1]; 1.8 µM in assay [2]; 4.01 µM in assay [3]; > 95.2 µM in assay [4]; 0.753 µM in assay [5]; 3.19 µM in assay [6]. In addition, the GI50 was 16.2 µM in assay [7], 6.05 µM in assay [8], 4.36 µM in assay [9] and 17.6 µM in assay [10]. Besides, the TGI in [1] was > 35.8 µM; in assay [2], 12.9 µM; in assay [3], > 100 µM; in assay [4], > 100 µM; in [5], > 100 µM; in assay [6] it was > 74.9 µM. For the same molecule, the TGI in assay [7] was > 100 µM; in assay [8] it was > 100 µM; in [9], > 32.7 µM; in assay [10], > 100 µM.
Regarding `COc1ccc2nc(NC(=O)C(=O)C(C#N)c3ccc(CC#N)cc3)sc2c1` (stereo not given), the TGI in assay [1], in [2], in [3], in assay [4], in [5] and in [6] was > 100 µM throughout. Besides, the TGI in assay [7], in assay [8], in assay [9] and in assay [10] was > 100 µM each time.
In the case of `COc1cc(C2CC(c3cc(Cl)c(C)cc3O)=NN2c2ccc(S(N)(=O)=O)cc2)cc(OC)c1OC` (stereo not given), the GI50 in [1] is 4.29 µM; in assay [2] it was 2.47 µM; in [3], 4.13 µM; in assay [4] it was 3.73 µM; in assay [5] it was 3.26 µM; in [6], 2.02 µM. For the same molecule, the GI50 in assay [7] is 1.84 µM; in assay [8] it was 2.84 µM; in [9] it was 1.8 µM; in assay [10], 4.46 µM. Besides, the TGI in [1] turned out to be 34.2 µM; in assay [2], 8.5 µM; in [3] it was 15.2 µM; in assay [4], 13.3 µM; in [5], 43.7 µM; in assay [6], 4.18 µM. Besides, the TGI is 3.75 µM in [7], 8.89 µM in [8], 3.96 µM in [9] and > 100 µM in [10].
Turning to `COc1ccc(C(=O)C(CN(C)C)c2ccccc2)cc1` (stereo not given), the GI50 in assay [1] is 2.17 µM; in assay [2] it was 2.81 µM; in [3] it was 2.39 µM; in assay [4], 2.67 µM; in assay [5], 14.1 µM; in assay [6] it was 4.22 µM. The GI50 is 2.28 µM in [7], 4.39 µM in assay [8], 12.6 µM in [9] and 4.41 µM in assay [10]. The TGI in assay [1] is 4.86 µM; in assay [2] it was 8.22 µM; in assay [3], 10.7 µM; in assay [4], 8.59 µM; in assay [5], 34.1 µM; in assay [6] it was 15.4 µM. The TGI is 3.94 µM in [7], 14.8 µM in assay [8], 32.4 µM in assay [9] and > 100 µM in assay [10].
Consider `CC(=O)O[C@H]1Cc2c([nH]c3ccccc23)[C@@H](c2ccc(Cl)cc2)N1C(=O)CCNC(C)(C)C`, for which the GI50 in assay [1] is 4.21 µM; in assay [2], 3.92 µM; in [3], 4.99 µM; in [4], 2.11 µM; in [5], 3.74 µM; in assay [6], 1.28 µM. Besides, the GI50 is 3.65 µM in assay [7], 4.33 µM in assay [8], 4.54 µM in assay [9] and 2.16 µM in assay [10]. For the same molecule, the TGI in assay [1] stood at 9.24 µM; in [2], 8.28 µM; in assay [3], 9.66 µM; in assay [4], 7.15 µM; in assay [5], 7.9 µM; in assay [6], 4.61 µM. Further, the TGI came to 7.85 µM in assay [7], 8.62 µM in [8], 9.01 µM in [9] and 8.99 µM in [10].
